# Source: ChEMBL document CHEMBL5390254, “Discovery and Optimization of Novel hDHODH Inhibitors for the Treatment of Inflammatory Bowel Disease” (J Med Chem, 2023)
# The source made the active and inactive calls. The calls are words filed in the database; no cut-off is given here.
# Legend:
# Mus musculus [1] = test: Anti-inflammatory activity against DSS-induced acute ulcerative colitis in C57BL/6 mouse model assessed as decrease in IL-1beta mRNA expression level in colon at 100 mg/kg, po QD for 6 days by RT-PCR analysis; format: functional, organism-based; conditions: time 6.0 day
# Mus musculus [2] = test: Anti-inflammatory activity against DSS-induced acute ulcerative colitis in C57BL/6 mouse model assessed as decrease in IL-1beta production in colon at 100 mg/kg, po QD for 6 days by ELISA; format: functional, organism-based; conditions: time 6.0 day
# [3] = molecular target: Dihydroorotate dehydrogenase (quinone), mitochondrial (Homo sapiens) (UniProt Q02127); conditions: dose 10.0 µM
# Description: Binding affinity to human DHODH assessed as change in melting temperature at 10 uM by thermal shift based DSF assay
# Mus musculus [4] = test: Anti-inflammatory activity against DSS-induced acute ulcerative colitis in C57BL/6 mouse model assessed as decrease in IL-6 production in colon at 100 mg/kg, po QD for 6 days by ELISA; format: functional, organism-based; conditions: time 6.0 day
# [5] = Apparent volume of distribution during terminal phase in Sprague-Dawley rat at 15 mg/kg, po and measured upto 48 hrs by LC-MS/MS analysis; format: ADME, organism-based; conditions: in vivo, read-out: Vz/F
# Mus musculus [6] = test: Anti-inflammatory activity against DSS-induced acute ulcerative colitis in C57BL/6 mouse model assessed as decrease in IL-6 mRNA expression level in colon at 100 mg/kg, po QD for 6 days by RT-PCR analysis; format: functional, organism-based; conditions: time 6.0 day
# Mus musculus [7] = test: Anti-inflammatory activity against DSS-induced acute ulcerative colitis in C57BL/6 mouse model assessed as decrease in IL-17 mRNA expression level in colon at 100 mg/kg, po QD for 6 days by RT-PCR analysis; format: functional, organism-based; conditions: time 6.0 day
# Mus musculus [8] = test: Anti-inflammatory activity against DSS-induced acute ulcerative colitis in C57BL/6 mouse model assessed as decrease in IL-17 production in colon at 100 mg/kg, po QD for 6 days by ELISA; format: functional, organism-based; conditions: time 6.0 day
# [9] = Terminal half life in Han Wistar rat at 5 mg/kg,po and measured upto 24 hrs by LC-MS analysis; format: ADME, organism-based; conditions: in vivo, read-out: beta t1/2 (converted)
# [10] = Oral bioavailability in Han Wistar rat at 5 mg/kg and measured upto 24 hrs by LC-MS analysis; format: ADME, organism-based; conditions: in vivo
# Mus musculus [11] = test: Anti-inflammatory activity against DSS-induced acute ulcerative colitis in C57BL/6 mouse model assessed as decrease in colon length shortening at 100 mg/kg, po QD for 6 days (Rvb= 5.5cm); format: functional; conditions: time 6 day
# Mus musculus [12] = test: Anti-inflammatory activity against DSS-induced acute ulcerative colitis in C57BL/6 mouse model assessed as decrease in colon tissue damage score at 100 mg/kg, po QD for 6 days relative to DSS group; format: functional; parameters: scale not given: the % may be the effect or the level left; conditions: time 6 day
# [13] = Apparent oral clearance in Han Wistar rat at 5 mg/kg,po and measured upto 24 hrs by LC-MS analysis; format: ADME, organism-based; conditions: in vivo
# [14] = 1-octanol/water partition coefficient, logP of the compound at 2 mg by UPLC analysis; format: physicochemical
# Mus musculus [15] = test: Anti-inflammatory activity against DSS-induced acute ulcerative colitis in C57BL/6 mouse model assessed as decrease in colon length shortening at 40 mg/kg, po QD for 6 days (Rvb= 5.5cm); format: functional; conditions: time 6 day
# Mus musculus [16] = test: Anti-inflammatory activity against DSS-induced acute ulcerative colitis in C57BL/6 mouse model assessed as decrease in IL-1beta mRNA expression level in colon at 40 mg/kg, po QD for 6 days by RT-PCR analysis; format: functional, organism-based; conditions: time 6.0 day
# Mus musculus [17] = test: Anti-inflammatory activity against DSS-induced acute ulcerative colitis in C57BL/6 mouse model assessed as decrease in IL-6 production in colon at 40 mg/kg, po QD for 6 days by ELISA; format: functional; conditions: time 6.0 day
# Mus musculus [18] = test: Anti-inflammatory activity against DSS-induced acute ulcerative colitis in C57BL/6 mouse model assessed as decrease in colon tissue damage score at 40 mg/kg, po QD for 6 days relative to DSS group; format: functional; parameters: scale not given: the % may be the effect or the level left; conditions: time 6 day
# Mus musculus [19] = test: Anti-inflammatory activity against DSS-induced acute ulcerative colitis in C57BL/6 mouse model assessed as decrease in IL-17 production in colon at 40 mg/kg, po QD for 6 days by ELISA; format: functional; conditions: time 6.0 day
# Mus musculus [20] = test: Anti-inflammatory activity against DSS-induced acute ulcerative colitis in C57BL/6 mouse model assessed as decrease in body weight loss at 80 mg/kg, po QD for 6 days (Rvb= -13.4%); format: functional; parameters: scale not given: the % may be the effect or the level left; conditions: time 6 day
# Mus musculus [21] = test: Anti-inflammatory activity against DSS-induced acute ulcerative colitis in C57BL/6 mouse model assessed as decrease in IL-17 mRNA expression level in colon at 40 mg/kg, po QD for 6 days by RT-PCR analysis; format: functional, organism-based; conditions: time 6.0 day
# Mus musculus [22] = test: Anti-inflammatory activity against DSS-induced acute ulcerative colitis in C57BL/6 mouse model assessed as decrease in IL-1beta production in colon at 40 mg/kg, po QD for 6 days by ELISA; format: functional; conditions: time 6.0 day
# Mus musculus [23] = test: Anti-inflammatory activity against DSS-induced acute ulcerative colitis in C57BL/6 mouse model assessed as increase in colon length at 80 mg/kg, po QD for 6 days (Rvb= 5.3cm); format: functional; conditions: time 6 day
# Mus musculus [24] = test: Anti-inflammatory activity against DSS-induced acute ulcerative colitis in C57BL/6 mouse model assessed as decrease in IL-6 mRNA expression level in colon at 40 mg/kg, po QD for 6 days by RT-PCR analysis; format: functional, organism-based; conditions: time 6.0 day
# Dihydroorotate dehydrogenase (quinone), mitochondrial (Homo sapiens), sequence (Q02127 whole entry): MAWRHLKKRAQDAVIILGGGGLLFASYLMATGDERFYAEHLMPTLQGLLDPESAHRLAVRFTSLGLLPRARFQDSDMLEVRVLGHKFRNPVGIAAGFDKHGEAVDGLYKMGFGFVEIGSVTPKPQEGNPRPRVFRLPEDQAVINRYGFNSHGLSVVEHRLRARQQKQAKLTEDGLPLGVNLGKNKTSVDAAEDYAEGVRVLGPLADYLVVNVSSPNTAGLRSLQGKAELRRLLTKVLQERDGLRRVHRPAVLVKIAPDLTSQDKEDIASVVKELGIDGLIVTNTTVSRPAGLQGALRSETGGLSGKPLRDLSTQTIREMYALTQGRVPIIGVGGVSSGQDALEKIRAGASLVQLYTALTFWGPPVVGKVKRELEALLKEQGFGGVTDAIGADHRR
smiles,measurement,setting,value
COc1cccc(-c2ccc(NC(=O)C3=C(C(=O)O)CCC3)c(F)c2)c1 [VIDOFLUDIMUS],Activity,Mus musculus [1],Active
same,Activity,Mus musculus [2],Active
same,ΔTm,[3],9.8 °C
same,Activity,Mus musculus [4],Active
same,Vd/F,[5],0.02 L/kg
same,Activity,Mus musculus [6],Active
same,Activity,Mus musculus [7],Active
same,Activity,Mus musculus [8],Active
same,half-life,[9],9.1 h
same,bioavailability,[10],73.8%
same,Activity,Mus musculus [11],6.4 cm
same,Activity,Mus musculus [12],22.73%
same,CL/F,[13],220 mL/min/kg
Fc1cccc(F)c1Cn1cc(-c2ncc(C3CC3)cn2)c2cccnc21,logP,[14],5.5
C[C@@H]1CCN(C(=O)CC#N)C[C@@H]1N(C)c1ncnc2[nH]ccc12 [TOFACITINIB],Activity,Mus musculus [15],6.3 cm
same,Activity,Mus musculus [16],Active
same,Activity,Mus musculus [17],Active
same,Activity,Mus musculus [18],45.45%
same,Activity,Mus musculus [19],Active
same,Activity,Mus musculus [20],-3.9%
same,Activity,Mus musculus [21],Active
same,Activity,Mus musculus [22],Active
same,Activity,Mus musculus [23],6.7 cm
same,Activity,Mus musculus [24],Active
